Common to all, as to format: cell-based
Test [1] relates to AGS cells. Nature of the test: Inhibition of ERK phosphorylation of AGS cells (HTRF method). Conditions: Homo sapiens, AGS, phosphorylated ERK/total ERK ratio, 1 h incubation. The method, then:
AGS cells (Nanjing Cobioer, CBP60476) were cultured in RPMI1640 (Hyclone, SH30809.01) complete medium containing 10% fetal bovine serum. On the first day of the experiment, the AGS cells were seeded into a 96-well plate with complete medium at a density of 40,000 cells/well to form 190 µL of cell suspension per well. The plate was incubated overnight in a cell incubator at 37 °C with 5% CO2.
The next day, 10 µL of serially-diluted test compound prepared from the complete medium was added to each well. The final concentrations of the compound were 9 concentration points obtained by 5-fold serial dilution from 10 µM. A blank control containing 0.5% DMSO was set. The well plate was incubated in a cell incubator at 37 °C with 5% CO2 for 1 h. After completion of incubation, the 96-well cell culture plate was taken out, the medium was removed by pipetting, 200 µL PBS (Shanghai BasalMedia Technologies Co., Ltd., B320) was added to each well, and the cells were washed once. PBS was removed by pipetting, 50 µL of lysis buffer (Cisbio, 64KL1FDF) containing a blocking solution (blocking reagent, Cisbio, 64KB1AAC) was added to each well, and the well plate was lysed on a shaker for 40 min at room temperature with shaking. After lysis, the lysate was pipetted and mixed well, 16 µL of lysate was transferred to two HTRF 96-well assay plates (Cisbio, 66PL96100) per well, and then 4 µL of premixed phosphorylated ERK1/2 antibody solution (Cisbio, 64AERPEG) or 4 µL of premixed total ERK1/2 antibody solution (Cisbio, 64NRKPEG) was added to these two plates. The microplate was sealed with a sealing membrane, centrifuged for 1 min in a microplate centrifuge, and incubated overnight at room temperature in the dark. On the third day, the fluorescence values at an excitation wavelength of 337 nm and at emission wavelengths of 665 nm and 620 nm were read using an ENVISION multifunctional microplate reader (PerkinElmer, ENVISION).
Table 1. Inhibitory activity data for ERK phosphorylation of AGS cells
Background: In TR-FRET formats the signal depends on donor and acceptor labels being close together.

In test [2] the test system is AGS cells. In words: Inhibition of 3D proliferation of AGS cells (CellTiter-Glo 3D). Conditions: Homo sapiens, 120 h incubation. Here is the method: AGS cells (Nanjing Cobioer, CBP60476) were cultured in a complete medium, namely RPMI1640 medium (Hyclone, SH30809.01) containing 10% fetal bovine serum (Corning, 35-076-CV). On the first day of the experiment, the AGS cells were seeded into a 96-well low adsorption plate (Corning, CLS7007-24EA) at a density of 1,000 cells/well using complete medium to form 90 µL of cell suspension per well. The plate was centrifuged at 2,000rpm for 5 min at room temperature and then incubated overnight in a cell incubator at 37 °C with 5% CO2.
(§1) The next day, 10 µL of serially-diluted test compound prepared from the complete medium was added to each well. The final concentrations of the compound of GP2d cells were 9 concentration points obtained by 3-fold serial dilution from 1 µM, and the final concentrations of the compound of AGS cells were 9 concentration points obtained by 3-fold serial dilution from 10 µM. A blank control containing 0.5% DMSO was set. The well plate was incubated in a cell incubator at 37 °C with 5% CO2 for 120 h. On the seventh day, the 96-well cell culture plate was taken out, 50 µL CellTiter-Glo® 3D reagent (Promega, G9682) was added into each well, the plate was shaken at room temperature for 25 min, pipetted and mixed well, 50 µL of the solution was transferred into a white impermeable 96-well plate (PE, 6005290), and the luminescence signal values were read using a multifunctional microplate reader (PerkinElmer, ENVISION).
(§2) Table 2. Inhibitory activity data for 3D proliferation of AGS and GP2d cells
(In general: Cellular ATP, detected with luciferase, serves as a proxy for viable cell number.)

Test [3] relates to GP2d cells. Nature of the test: Inhibition of 3D proliferation of GP2d cells (CellTiter-Glo 3D). Conditions: 120 h incubation. Here is the method: GP2d cells (Nanjing Cobioer, CBP60010) were cultured in a complete medium, namely DMEM/high glucose medium (Hyclone, SH30243.01) containing 10% fetal bovine serum (Corning, 35-076-CV). On the first day of the experiment, GP2d cells were seeded into a 96-well low adsorption plate (Corning, CLS7007-24EA) with complete medium at a density of 1,000 cells/well to form 90 µL of cell suspension per well. The plate was centrifuged at 2,000 rpm for 5 min at room temperature and then incubated overnight in a cell incubator at 37 °C with 5% CO2.
as §1, §2

For `CCc1c(F)ccc2cc(O)cc(-c3nc4c5c(nc(OCC6(CN7CCC[C@H]7CO)CC6)nc5c3F)N3C[C@H]5CC[C@H](N5)[C@H]3CO4)c12` [Example 17, 5-Ethyl-6-fluoro-4-((5aS,6S,9R)-1-fluoro-12-((1-(((S)-2-(hydroxymethyl)pyrrolidin-1-yl)methyl)cyclopropyl)methoxy)-5a,6,7,8,9,10-hexahydro-5H-4-oxa-3,10a,11,13,14-pentaaza-6,9-methanonaphtho[1,8-ab]heptalen-2-yl)naphthalen-2-ol], the figures for the IC50 in test [1], in test [2] and in test [3] were 2.8 nM, 52.2 nM and 4.9 nM, respectively.

As to `Oc1cc(-c2nc3c4c(nc(OC[C@@]56CCCN5C[C@H](F)C6)nc4c2F)N2C[C@H]4CC[C@H](N4)[C@H]2CO3)c2c(F)c(F)ccc2c1` [Example 8-p1, 5,6-Difluoro-4-((5aS,6S,9R)-1-fluoro-12-(((2R,7aS)-2-fluorotetrahydro-1H-pyrrolizin-7 a(5H)-yl)methoxy)-5a,6,7,8,9,10-hexahydro-5H-4-oxa-3,10a,11,13,14-pentaaza-6,9-methanonaphtho[1,8-ab]heptalen-2-yl)naphthalen-2-ol], the IC50 (usually the concentration needed to halve the response being measured) is 1.4 nM in test [1], 50.3 nM in test [2] and 1.3 nM in test [3].

On to `Oc1cc(Cl)c(C2CC2)c(-c2nc3c4c(nc(OC[C@@]56CCCN5C[C@H](F)C6)nc4c2F)N2C[C@H]4CC[C@H](N4)[C@H]2CO3)c1` [Example 6-p1, 3-Chloro-4-cyclopropyl-5-((5aS,6S,9R)-1-fluoro-12-(((2R,7aS)-2-fluorotetrahydro-1H-pyrrolizin-7a(5H)-yl)methoxy)-5a,6,7,8,9,10-hexahydro-5H-4-oxa-3,10a,11,13,14-pentaaza-6,9-methanonaphtho[1,8-ab]heptalen-2-yl)phenol], for which the half-inhibitory concentration (IC50) in test [1] came to 1.2 nM; in test [2] it was 32.9 nM; in test [3], 7.2 nM.

For `Oc1cc(-c2nc3c4c(nc(OC[C@@]56CCCN5C[C@H](F)C6)nc4c2F)N2C[C@H]4CC[C@H](N4)[C@H]2CO3)c2c(F)cccc2c1` [Example 3-p1, 5-Fluoro-4-((5aS,6S,9R)-1-fluoro-12-(((2R,7aS)-2-fluorotetrahydro-1H-pyrrolizin-7a(5 H)-yl)methoxy)-5a,6,7,8,9,10-hexahydro-5H-4-oxa-3,10a,11,13,14-pentaaza-6,9-methanonaphtho[1,8-ab]heptalen-2-yl)naphthalen-2-ol], the figures for the half-maximal inhibitory concentration (IC50) in test [1], in test [2] and in test [3] were 17 nM, 95.3 nM and 13 nM, respectively.

Consider `CCc1cccc2cc(O)cc(-c3nc4c5c(nc(OC[C@@]67CCCN6C[C@H](F)C7)nc5c3F)N3C[C@H]5CC[C@H](N5)[C@H]3CO4)c12` [Example 4-p1, 5-Ethyl-4-((5aS,6S,9R)-1-fluoro-12-(((2R,7aS)-2-fluorotetrahydro-1H-pyrrolizin-7a(5H )-yl)methoxy)-5a,6,7,8,9,10-hexahydro-5H-4-oxa-3,10a,11,13,14-pentaaza-6,9-methanonaphtho[1,8-ab]heptalen-2-yl)naphthalen-2-ol], for which the IC50 came out at 2 nM in test [1], 14.5 nM in test [2] and 0.8 nM in test [3].

In the case of `CCc1c(F)ccc2cc(O)cc(-c3nc4c5c(nc(OC[C@@]67CCCN6C[C@H](F)C7)nc5c3F)N3C[C@H]5CC[C@H](N5)[C@H]3CO4)c12` [Example 9-p1, 5-Ethyl-6-fluoro-4-((5aS,6S,9R)-1-fluoro-12-(((2R,7aS)-2-fluorotetrahydro-1H-pyrrolizin-7a(5H)-yl)methoxy)-5a,6,7,8,9,10-hexahydro-5H-4-oxa-3,10a,11,13,14-pentaaza-6,9-methanonaphtho[1,8-ab]heptalen-2-yl)naphthalen-2-ol], the figures for the IC50 in test [1], in test [2] and in test [3] were 0.4 nM, 5.8 nM and 0.9 nM, respectively.

The values are drawn from patent publication EP4361157A1, “FUSED TETRACYCLIC COMPOUND, PREPARATION METHOD THEREFOR AND APPLICATION THEREOF IN MEDICINE” (Jiangsu Hengrui Pharmaceuticals Co., Ltd., priority 2021, dated 2022).
